In patent US8008355B2, “Endosomolytic poly(vinyl ether) polymers” (Roche Madison Inc., priority 2002, dated 2011):

How the values were obtained:
[1] = amines with electron withdrawing groups; cited from earlier work
[2] = Rate of cleavage of linkages; type: physicochemical

Row | SMILES | pKa [1] | rate of cleavage, slower than an SMTP linkage (Compound XI) [2] [×]
1 | CCN(CC)CCC#N [(C2H5)2N(CH2)2CN] | 7.65 | –
2 | CCN(CCC#N)CCC#N [C2H5N(CH2CH2CN)2] | 4.55 | –
3 | CC1CCC(=N)S1 (stereo not shown) [Linkage X, 5-methyl-2-iminothiolane] | – | 4
4 | N#CCN [Polymer H2NCH2CN, H2NCH2CN] | 5.34 | –
